Test results published in patent US8940331B2, “Hydrogels, methods of making hydrogels, methods of using hydrogels, and methods of isolating, trapping, attracting, and/or killing cancer cells” (The Board of Trustees of the Leland Stanford Junior …, priority 2008, dated 2015).
Like-named read-outs stand apart in the source and are kept apart here. Square brackets hold non-standard residues; d marks the D form. Peptide text beside a SMILES is read from it. Nspe = C[C@H](NCC(=O)O)c1ccccc1; Nphe = O=C(O)CNCc1ccccc1; Nlys = NCCCCNCC(=O)O

Legend:
[1] = MTS cell viability assay, primary dermal fibroblasts; assay type: cell-based; conditions: MTS assay, cells treated 24 h; concentration causing 50% cell death; read-out: LC50 Primary dermal fibroblast
Description: (§1) A library of cationic, amphipathic peptoid oligomers (“capetoids”) with various chain lengths, charges, helicity, hydrophobicity and amphipathicity have been synthesized. Their activities towards several in vitro cultured cancer cell lines were tested via MTS assays. Primary dermal fibroblasts and freshly isolated red blood cells were also tested to estimate their biosafety. […] In some concentration ranges, these peptoids kill cancer cells efficiently while being relatively safe to primary dermal fibroblasts. […] Furthermore, the actions of these peptoids were not affected by the known multidrug resistance. In MCF 7 cells and the multidrug resistant MCF 7 cells (kindly provided by Prof. Brandy Sikic at Stanford) which overexpress P-glycoproteins, these peptoids had similar cytotoxicities.

human RBCs = assay type: cell-based
Description: as §1

[2] = assay type: cell-based; conditions: MTS assay, cells treated 24 h, concentration causing 50% cell death
Description: as §1

breast cancer cells = assay: In vitro chemotaxis transwell assay; assay type: cell-based
Excerpt: Different chemoattractants can be chosen with regard to the cancer types of interest. As an example, Table 2 summarizes chemoattractant candidates for breast cancer. The efficacies and dosages of chemoattractants are being characterized by in vitro chemotaxis assays. The chemotactic effects of an important candidate, stromal cell-derived factor 1 (SDF-1), have been confirmed in vitro using the transwell assay.

[3] = system: Primary dermal fibroblast; assay: MTS cell viability assay, primary dermal fibroblasts; assay type: cell-based; conditions: in vitro; data not shown
Description: as §1

[4] = read-out: LC50 Lncap (prostate cancer)
[5] = read-out: LC50 MCF7 (breast cancer)
[6] = read-out: LC50 MEL28 (Melanoma)
[7] = read-out: LC50 Ovcar3 (ovarian cancer)

| Compound | CC50 [1] | HC10 Red blood cells (human RBCs) | CC50 [2, 4] | CC50 [2, 5] | CC50 [2, 6] | CC50 [2, 7] | HC10 Red blood cells (human RBCs; concentration causing 10% hemolysis of human RBCs) | Chemotactic effects (breast cancer cells) | Killing of primary fibroblasts compared with cancer cell lines [3] |
| --- | --- | --- | --- | --- | --- | --- | --- | --- | --- |
| C[C@@H](c1ccccc1)N(CC(=O)N(CC(=O)N(CCCCN)CC(=O)N(CC(=O)N(CC(=O)N(CCCCN)CC(=O)N(CC(=O)N(CC(=O)N(CCCCN)CC(=O)N(CC(=O)N(CC(N)=O)Cc1ccccc1)Cc1ccccc1)Cc1ccccc1)Cc1ccccc1)Cc1ccccc1)Cc1ccccc1)Cc1ccccc1)C(=O)CNCCCCN [1achiral-Nspe 2, H-NLys-Nspe-Npm-(NLys-Npm-Npm)3-NH2] (H-[Nlys][Nspe][Nphe][Nlys][Nphe][Nphe][Nlys][Nphe][Nphe][Nlys][Nphe][Nphe]-NH2) | 36.5 µM | 160 µM | 8.5 µM | 14.5 µM | 18 µM | 15.5 µM |  |  |  |
| C[C@@H](c1ccccc1)N(CC(N)=O)C(=O)CN(C(=O)CN(CCCCN)C(=O)CN(Cc1ccccc1)C(=O)CN(Cc1ccccc1)C(=O)CN(CCCCN)C(=O)CN(C(=O)CN(C(=O)CN(CCCCN)C(=O)CN(Cc1ccccc1)C(=O)CN(Cc1ccccc1)C(=O)CNCCCCN)[C@@H](C)c1ccccc1)[C@@H](C)c1ccccc1)[C@@H](C)c1ccccc1 [1-Npm2,3,8,9, H-(NLys-Npm-Npm-NLys-Nspe-Nspe)2-NH2] | 18.5 µM | 80 µM | 10.5 µM | 10 µM | 16.5 µM | 11 µM |  |  |  |
| C[C@@H](c1ccccc1)N(CC(N)=O)C(=O)CN(CCCCN)C(=O)CN(C(=O)CN(C(=O)CN(CCCCN)C(=O)CN(C(=O)CN(C(=O)CN(CCCCN)C(=O)CN(C(=O)CN(C(=O)CNCCCCN)[C@@H](C)c1ccccc1)[C@@H](C)c1ccccc1)[C@@H](C)c1ccccc1)[C@@H](C)c1ccccc1)[C@@H](C)c1ccccc1)[C@@H](C)c1ccccc1 [Peptoid 111mer, H-(NLys-Nspe-Nspe)3-NLys-Nspe-NH2] (H-[Nlys][Nspe][Nspe][Nlys][Nspe][Nspe][Nlys][Nspe][Nspe][Nlys][Nspe]-NH2) | 18.5 µM | 103 µM | 8 µM | 9 µM | 15 µM | 10.5 µM |  |  |  |
| C[C@@H](c1ccccc1)N(CC(N)=O)C(=O)CN(C(=O)CN(CCCCN)C(=O)CN(C(=O)CN(C(=O)CN(CCCCN)C(=O)CN(C(=O)CN(C(=O)CN(CCCCN)C(=O)CN(C(=O)CN(C(=O)CNCCCCN)[C@@H](C)c1ccccc1)[C@@H](C)c1ccccc1)[C@@H](C)c1ccccc1)[C@@H](C)c1ccccc1)[C@@H](C)c1ccccc1)[C@@H](C)c1ccccc1)[C@@H](C)c1ccccc1 [Peptoid 1, H-(NLys-Nspe-Nspe)4-NH2] (H-[Nlys][Nspe][Nspe][Nlys][Nspe][Nspe][Nlys][Nspe][Nspe][Nlys][Nspe][Nspe]-NH2) | 5 µM |  | 5 µM | 4.5 µM | 5 µM | 6.5 µM | 21000 µM |  |  |
| stromal cell-derived factor 1 [SDF-1] |  |  |  |  |  |  |  | confirmed |  |
| COc1cccc2c1C(=O)c1c(O)c3c(c(O)c1C2=O)C[C@@](O)(C(=O)CO)C[C@@H]3O[C@H]1C[C@H](N)[C@H](O)[C@H](C)O1 [Doxorubicin, reference compound] |  |  |  |  |  |  |  |  | killed primary fibroblasts as efficiently as cancer cell lines |
| CC(=O)O[C@@]12CO[C@@H]1C[C@H](O)[C@@]1(C)C(=O)[C@H](O)C3=C(C)[C@@H](OC(=O)[C@H](O)[C@@H](NC(=O)OC(C)(C)C)c4ccccc4)C[C@@](O)([C@@H](OC(=O)c4ccccc4)[C@H]21)C3(C)C [docetaxel, reference compound] |  |  |  |  |  |  |  |  | killed primary fibroblasts as efficiently as cancer cell lines |
| NCCCCNCC(=O)N(CC(=O)N(CC(=O)N(CCCCN)CC(=O)N(CC(=O)N(CC(=O)N(CCCCN)CC(=O)N(CC(=O)N(CC(=O)N(CCCCN)CC(=O)N(CC(=O)N(CC(N)=O)Cc1ccccc1)Cc1ccccc1)Cc1ccccc1)Cc1ccccc1)Cc1ccccc1)Cc1ccccc1)Cc1ccccc1)Cc1ccccc1 [Peptoid 1achiral, H-(NLys-Npm-Npm)4-NH2] (H-[Nlys][Nphe][Nphe][Nlys][Nphe][Nphe][Nlys][Nphe][Nphe][Nlys][Nphe][Nphe]-NH2) | 39.5 µM | 183 µM | 10.5 µM | 15 µM | 18.5 µM | 16 µM |  |  |  |
